# Test results published in patent US4877727A, “Substrate for determining leucine aminopeptidase or gamma-glutamyltranspeptase activity” (Kyowa Medex Co., Ltd., priority 1984, dated 1989).
# Legend:
# [1] = Solubility of substrate; type: physicochemical; settings: read-out: S: Solubility
# [2] = Maximum wavelength of formed pigment; type: physicochemical
# Protocol: 50 μl of 1 mM each free compound was added to 3 ml of 0.1M phosphate buffer containing 0.5 mg/ml EMSE and 1 U/ml laccase and the mixture was incubated at 37° C. for 5 minutes. The absorption of the reaction solution at λmax was measured. As a control, 5-aminosalicylic acid was used and the reaction of the compound with 2,6-xylenol was carried out in the presence of metaperiodate under strong alkaline conditions.
# [3] = target: T1, γ-glutamyltranspeptidase (γ-GTP) (Homo sapiens, UniProt P19440); experiment: γ-GTP determination in serum (Example 3); type: biochemical; settings: found with the compound as substrate; standard serum 235 mU/ml; 37° C., 5 minutes; wavelength of Table 2
# T1 construct: from tissue; host or cells: serum
# Protocol: In this example, 500 mg of compound Nos. 1, 3, 5, 7 and 9 each and 500 mg of glycylglycine were dissolved in 100 ml (pH=7.7) and 0.1M phosphate buffer. The resultant solutions were designated A-1, A-3, A-5, A-7 and A-9, respectively. 50 mg of 3-{N-(m-tolyl)-N-ethyl}amino-2-hydroxypropane sulfonic acid was dissolved in 100 ml of phosphate buffer solution to obtain solution B. 50 mg/ml sodium meta-periodate containing 1N-HCl solution was prepared as solution C.
# 6 ml of solution A-1, A-3, A-5, A-7 or A-9 was equally poured to 3 test tubes. The samples were incubated at 37° C. and to the solution was added […] of (a) serum sample (b) standard serum or (c) water. The mixtures were stirred and heated for 5 minutes. After 5 minutes had passed, 1 ml of solution B and 1 ml of solution C were added to each of the mixtures and the mixtures were incubated for 10 minutes after stirring. As the standard serum, a serum having 235 mU/ml of γ-GTP was used.
# The γ-GTP activity of the serum sample can be calculated by the following equation. [formula]
# [4] = Stability of pigment; type: physicochemical
# [5] = test system: leucine aminopeptidase (LAP); experiment: LAP determination in serum, absorption change per minute (Example 1); type: biochemical
# Protocol: 3 ml of the reagent solution was incubated at 37° C. for ten minutes. To the solution was added 0.05 ml of a serum sample and the mixture was immediately stirred and the change in absorption of the solution at 745 nm was measured for one minute.
# LAP activity in the sample can be calculated using the following equation: [formula] ΔE means the amount of absorption change per minute.
# The same procedures as described above were repeated except that the following materials were used. […]
# T1 sequence (P19440 1-380 limits assumed): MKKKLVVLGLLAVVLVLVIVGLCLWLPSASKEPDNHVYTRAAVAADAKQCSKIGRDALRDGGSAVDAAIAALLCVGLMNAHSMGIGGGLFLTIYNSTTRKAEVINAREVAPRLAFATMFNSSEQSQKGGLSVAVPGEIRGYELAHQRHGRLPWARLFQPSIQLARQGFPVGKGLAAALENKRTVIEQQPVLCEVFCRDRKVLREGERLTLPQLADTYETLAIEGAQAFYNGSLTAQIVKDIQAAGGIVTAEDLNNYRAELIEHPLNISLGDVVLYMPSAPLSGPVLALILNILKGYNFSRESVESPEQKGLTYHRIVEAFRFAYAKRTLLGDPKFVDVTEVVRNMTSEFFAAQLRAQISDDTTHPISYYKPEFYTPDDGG
# T1 sequence (P19440 381-569 limits assumed): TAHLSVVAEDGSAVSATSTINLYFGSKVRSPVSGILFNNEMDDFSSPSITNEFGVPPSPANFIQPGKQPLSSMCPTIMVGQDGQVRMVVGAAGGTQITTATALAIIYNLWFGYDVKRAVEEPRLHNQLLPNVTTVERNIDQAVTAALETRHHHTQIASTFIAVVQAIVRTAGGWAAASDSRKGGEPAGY
SMILES,solubility [1] [mg/mL],λmax: Maximum wavelength [2] [nm],ST: Stability of pigment [4] [%],also measured
CN(CCCS(=O)(=O)O)c1ccc(NC(=O)CC[C@H](N)C(=O)O)cc1 [compound 3],80,750,> 96,γ-GTP activity of the serum sample [3]: 228 mU/ml
"CC(C)C[C@H](N)C(=O)Nc1ccc([N+](=O)[O-])cc1 [(b), L-leucil-p-nitroanilide]",,,,"amount of absorption change per minute ([5]; Serum (2), same wavelengths): 0.0054; amount of absorption change per minute ([5]; Serum (3), same wavelengths): 0.0090; amount of absorption change per minute ([5]; Serum (4), same wavelengths): 0.0089; amount of absorption change per minute ([5]; Serum (5), same wavelengths): 0.0071; amount of absorption change per minute ([5]; Serum (6), same wavelengths): 0.0071; amount of absorption change per minute ([5]; Serum (7), same wavelengths): 0.0074; amount of absorption change per minute ([5]; Serum (8), same wavelengths): 0.0086; amount of absorption change per minute ([5]; Serum (9), same wavelengths): 0.0082; amount of absorption change per minute ([5]; Serum (10), same wavelengths): 0.0079; amount of absorption change per minute ([5]; Serum(1), 37° C., 745 nm Compound No. 2, 635 nm (a), 565 nm (b), 675 nm (c)): 0.0071"
CCN(CC(O)CS(=O)(=O)O)c1ccc(NC(=O)CC[C@H](N)C(=O)O)cc1 (stereo partly drawn) [compound 5],170,740,> 98,γ-GTP activity of the serum sample [3]: 236 mU/ml
CC(C)C[C@H](N)C(=O)Nc1ccc(N(C)CCCS(=O)(=O)O)cc1 [compound 4],65,750,> 96,
"CC(C)C[C@H](N)C(=O)Nc1ccc(O)c(C(=O)O)c1 [Control, reference compound]",< 20,615,90,

# Further lines, with some results ahead:
solubility [1] [mg/mL],λmax: Maximum wavelength [2] [nm],ST: Stability of pigment [4] [%],SMILES,also measured
> 200,705,> 98,COC(=O)c1cc(NC(=O)[C@@H](N)CC(C)C)ccc1N(CCCCS(=O)(=O)O)CCCCS(=O)(=O)O [compound 13],
> 200,640,95,CC(C)C[C@H](N)C(=O)Nc1ccc(N(CCS(=O)(=O)O)CCS(=O)(=O)O)c(C#N)c1 [compound 11],
> 200,715,> 98,Cc1cc(NC(=O)[C@@H](N)CC(C)C)ccc1N(CCS(=O)(=O)O)CCS(=O)(=O)O [compound 12],
